Data: patent US4510144A, “Methods of imparting immunomodulating activity with dihydrothiazolo purine derivatives” (Newport Pharmaceuticals International, priority 1982, dated 1985)
Like-named read-outs stand apart in the source and are kept apart here.

Legend:
Influenza A/USSR 90 = assay: inhibition of influenza virus replication (hemadsorption assay); assay type: cell-based; details: read-out: % inhibition of viral growth
Protocol: The ability of NPT 16416 to inhibit influenza virus replication was measured using the hemadsorption assay.

[1] = system: murine spleen cells, Con A induced (T-cells); assay: Con A induced lymphocyte proliferation in mouse spleen cells in vitro; assay type: cell-based, mouse (Balb/C); details: for activity at 0.01 µg/mL / activity at 0.1 µg/mL / activity at 1 µg/mL / activity at 2.5 µg/mL / activity at 5 µg/mL / activity at 25 µg/mL / activity at 50 µg/mL: Mus musculus
Source text: (1) Mitogen-(Lipopolysaccharide, LPS or Con A) induced lymphocyte proliferation using murine spleen cells (in vitro)
1. […] LPS is a mitogen which acts preferentially on B-cells. […] Con A is considered a T-cell mitogen.
1. Balb/C male mice, 7-8 weeks old, are used up to 20-24 weeks of age.
2. The animals are sacrificed by cervical dislocation and the animals' left sides swabbed with 70% ethanol. An incision is made between the lower ribs and pelvis, laterally from front to back, and the skin retracted. Aseptic technique is to be observed from this point on.
3. The spleen is gently removed with sterile forceps. […] When all spleens have been collected and cleaned they are placed in a second petri dish containing 3 ml cold RPMI.
4. Spleen cell suspensions are prepared by gentle mincing of the tissue with a sterile blade and filtering through #100 stainless steel mesh.
6. An aliquot of the above suspension is prepared for cell counting as follows: 0.1 ml of suspension is diluted to 1.0 ml with 3% acetic acid and let stand at room temperature for at least five minutes. The sample is then diluted 1:100 with "Isoton II" (Curtis-Matheson Co.) and counted in a coulter counter.
MURINE SPLENOCYTE STIMULATION WITH CONCANAVALIN A (CON A), LIPOPOLYSACCHARIDE (LPS), AND ALLOGENEIC SPLENOCYTES (LMC).
There is set forth below the standard procedure which should be modified according to the solubility and other properties of the particular compound tested.
Add ~10 ml RPMI to 1.79 g HEPES and vortex until completely dissolved. […] Allow to warm temperature before use.
5. Con A (Calbiochem)--100 mg/ml NaCl injection solution (McGaw), filter, aliquot in 1 ml, and store at -70° C.
8. Tritiated thymidine (^3 H-TdR, Schwartz-Mann, 6 Ci/mM). Remove a slightly larger volume of ^3 H-TdR than needed from vial with a 1 cc syringe and place volume in the cap of a small sterile plastic tube. […] Vortex thoroughly before adding to plates.
1. Animals are sacrificed by cervical dislocation killing one from each group and processing the cells individually before killing the next animal. Swab each animal with 70% ethanol before surgery. […] Use 8 vertical strokes (or enough to break up all tissue) with Teflon-tipped homogenizer. Filter each sample through a 100 mesh screen into a 50 ml tube. […] After all samples have been spun, vortex each briefly and let sit for 1 hour. Vortex each sample ~5 seconds, waiting ~10 seconds between each sample. Let sit 5 minutes, then pipet cell suspension into 5 ml (12×75 mm) tube being careful not to remove any sediment. Remove 50 ul cell suspension using micropipetter, carefully wipe pipet tip with kimwipe and pipet into 20 ml Isoton in Coulter counter vial, rinsing pipet several times in the Isoton. Add 6 drops of CyMet and swirl vial to mix. Use the following Coulter counter settings: Amplification-1, Threshold-10, and Aperture Current-1. Clean counter with Isoterge the morning of experiment and count background before standardizing with CH 0.60 Hematology Controls. After cell counts are obtained, dilute to 6×10^6 cells/ml with supplemented RPMI and aliquot into 3 tubes for the 3 assays.
1. Pipet 100 μl control media (supplemented RPMI) or appropriate dilution of mitogen (starting with lowest concentration) into microtiter plate using Titertek multi-channel pipetter. Place plates in 37° C. CO2 incubator with CO2 set at 0.5 after each plate has been pipetted. Pipet 100 μl responder cells into wells starting with most dilute mitogen concentration. Place plates in incubator as they are filled and after all plates are in incubator, let sit for 10-20 minutes. Wrap plates with plastic wrap, recover with top, replace in incubator, and reset CO2 to ~0.05. Save ~50 ml supplemented RPMI at 4° C. for thymidine dilution. After ~44 hours warm the RPMI to 37° C. in incubator. Dilute tritiated Thymidine 1:100 in warmed RPMI. Use Titertek to add 50 μl Thymidine to each well. Treat plates as above and incubate overnight (~18 hours).

[2] = preliminary toxicity studies in Balb/C mice; assay type: in vivo
Protocol: If it is assumed 50 mg/kg is the minimum lethal dose and it is assumed <0.05 mg/kg is the minimum effective dose, the lowest possible therapeutic ratio for NPT 16416 is 50/0.05 or 1000/1.0. It is believed that the toxicity is far less by the oral route since 500 mg/kg p.o. produced no deaths in Balb/c mice.

[3] = system: splenocytes from athymic mice (theta positive cells); assay: induction of theta positive cells in splenocytes from athymic (nude) mice in vitro; assay type: cell-based; details: for percent of theta positive cells: mean of three experiments, saline control 8
Source text: (4) Induction of theta positive cells in nude mice (in vitro).

Oc1ncnc2c1nc1n2CCS1 [NPT 16416, 3-hydroxy-7,8-dihydrothiazolo-[3,2e]-purine] gave an inhibition at 0.1 µg/mL (Influenza A/USSR 90; 0.1 μg/ml) of 54%, an inhibition at 0.5 µg/mL (Influenza A/USSR 90; 0.5 μg/ml) of 59% and an inhibition at 75 µg/mL (Influenza A/USSR 90; 75 μg/ml) of 78%. For the same molecule, the inhibition at 0.05 µg/mL (Influenza A/USSR 90; NPT 16416 0.05 μg/ml) was 48%, the activity at 0.01 µg/mL ([1]; T-cell, drug 10 ng/ml, Con A 1000 ng/ml, drug/control, read-out: Hi Mitogen D/C Con A) was 104% and the activity at 0.1 µg/mL ([1]; T-cell, drug 100 ng/ml, Con A 1000 ng/ml, drug/control, read-out: Hi Mitogen D/C Con A) was 102%. For the same molecule, the activity at 1 µg/mL ([1]; T-cell, drug 1,000 ng/ml, Con A 1000 ng/ml, drug/control, read-out: Hi Mitogen D/C Con A) was 103%, the activity at 2.5 µg/mL ([1]; T-cell, drug 2,500 ng/ml, Con A 1000 ng/ml, drug/control, read-out: Hi Mitogen D/C Con A) was 91% and the activity at 5 µg/mL ([1]; T-cell, drug 5,000 ng/ml, Con A 1000 ng/ml, drug/control, read-out: Hi Mitogen D/C Con A) was 101%. It also gave an activity at 25 µg/mL ([1]; T-cell, drug 25,000 ng/ml, Con A 1000 ng/ml, drug/control, read-out: Hi Mitogen D/C Con A) of 100%, an activity at 50 µg/mL ([1]; T-cell, drug 50,000 ng/ml, Con A 1000 ng/ml, drug/control, read-out: Hi Mitogen D/C Con A) of 99% and an activity at 0.01 µg/mL ([1]; read-out: Lo Mitogen D/C Con A) of 85%. It also gave an activity at 0.1 µg/mL ([1]; drug 100 ng/ml, Con A 375 ng/ml, drug/control, read-out: Lo Mitogen D/C Con A) of 105%, an activity at 1 µg/mL ([1]; drug 1,000 ng/ml, Con A 375 ng/ml, drug/control, read-out: Lo Mitogen D/C Con A) of 93% and an activity at 1 µg/mL ([1]; drug 1,000 ng/ml, Con A .375 μg/ml, read-out: Con A D/C (maximum values)) of 118%. The activity at 2.5 µg/mL ([1]; drug 2,500 ng/ml, Con A 375 ng/ml, drug/control, read-out: Lo Mitogen D/C Con A) was 98%, the activity at 5 µg/mL ([1]; drug 5,000 ng/ml, Con A 375 ng/ml, drug/control, read-out: Lo Mitogen D/C Con A) was 110% and the activity at 25 µg/mL ([1]; drug 25,000 ng/ml, Con A 375 ng/ml, drug/control, read-out: Lo Mitogen D/C Con A) was 113%. The activity at 25 µg/mL ([1]; drug 25,000 ng/ml, Con A .375 μg/ml, read-out: Con A D/C (maximum values)) was 118%, the activity at 50 µg/mL ([1]; drug 50,000 ng/ml, Con A 375 ng/ml, drug/control, read-out: Lo Mitogen D/C Con A) was 103% and the “CPM Incorp. + Con A” value ([1]; drug 10 ng/ml, Con A 375 ng/ml) was 17.3 CPM × 10^3. For the same molecule, the “CPM Incorp. + Con A” value ([1]; drug 10 ng/ml, Con A 1000 ng/ml) was 61.8 CPM × 10^3, the “CPM Incorp. + Con A” value ([1]; drug 100 ng/ml, Con A 375 ng/ml) was 20.6 CPM × 10^3 and the “CPM Incorp. + Con A” value ([1]; drug 100 ng/ml, Con A 1000 ng/ml) was 60.8 CPM × 10^3. The “CPM Incorp. + Con A” value ([1]; drug 1,000 ng/ml, Con A 375 ng/ml) was 18.0 CPM × 10^3, the “CPM Incorp. + Con A” value ([1]; drug 1,000 ng/ml, Con A 1000 ng/ml) was 60.8 CPM × 10^3 and the “CPM Incorp. + Con A” value ([1]; drug 2,500 ng/ml, Con A 375 ng/ml) was 19.1 CPM × 10^3. The “CPM Incorp. + Con A” value ([1]; drug 2,500 ng/ml, Con A 1000 ng/ml) was 54.0 CPM × 10^3, the “CPM Incorp. + Con A” value ([1]; drug 5,000 ng/ml, Con A 375 ng/ml) was 21.5 CPM × 10^3 and the “CPM Incorp. + Con A” value ([1]; drug 5,000 ng/ml, Con A 1000 ng/ml) was 59.7 CPM × 10^3. The “CPM Incorp. + Con A” value ([1]; drug 25,000 ng/ml, Con A 375 ng/ml) was 22.1 CPM × 10^3, the “CPM Incorp. + Con A” value ([1]; drug 25,000 ng/ml, Con A 1000 ng/ml) was 59.0 CPM × 10^3 and the “CPM Incorp. + Con A” value ([1]; drug 50,000 ng/ml, Con A 375 ng/ml) was 20.2 CPM × 10^3. The “CPM Incorp. + Con A” value ([1]; drug 50,000 ng/ml, Con A 1000 ng/ml) was 58.6 CPM × 10^3, the “effect on Con A induced proliferation (T-cell response), in words” value ([1]; in vitro) was “little or no effect” and the mortality ([2]; 50 mg/kg i.p., Balb/C mice) was “no mortality”. The deaths ([2]; 500 mg/kg p.o., Balb/c mice) was “no deaths”, the “percent of theta positive cells” value ([3]; .005-.01 μg/ml) was 14% and the “percent of theta positive cells” value ([3]; .05-.1 μg/ml) was 18%. For the same molecule, the “percent of theta positive cells” value ([3]; .5-1.0 μg/ml) was 17%, the “production of theta positive (T) cells, in words” value ([3]; in vitro) was “able to cause the production of T-cells from a T-cell deficient population” and the “increase of theta positive cells over control values” ([3]; spleen cells from athymic mice, in vitro) was 125%.
